Results reported in ChEMBL document CHEMBL1201862, “PubChem BioAssay data set” (2004).
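48-hour exposure; five concentrations; linearly interpolated endpoints. The concentration for 50% growth inhibition is given as GI50.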 Active and inactive are the calls of the source. Rule as the data show it: active = GI50 up to about 1.1 µM and inactive = higher. Where a SMILES comes first, the peptide text is derived from it. [ ]: non-standard residue; d: D form. The star is where a group is joined. ξ: configuration not given here. ξPhe(4-NO2) = NC(Cc1ccc([N+](=O)[O-])cc1)C(=O)O; Boc = CC(C)(C)OC(=O)*; OBn = c1ccc(CO*)cc1

Tests used:
Assay in all cases: inhibition of tumour cell growth, NCI panel, 48 h
Hs-578T = test system: Hs-578T
UACC-257 = test system: UACC-257
SW-620 = test system: SW-620
TK-10 = test system: TK-10
SK-MEL-2 = test system: SK-MEL-2
DU-145 = test system: DU-145
M14 = test system: M14
SK-MEL-28 = test system: SK-MEL-28
T47D = test system: T47D
MCF7 = test system: MCF7
NCI-H23 = test system: NCI-H23
UO-31 = test system: UO-31
MOLT-4 = test system: MOLT-4
HCC 2998 = test system: HCC 2998
OVCAR-8 = test system: OVCAR-8
U-251 = test system: U-251
SF-295 = test system: SF-295
LOX IMVI = test system: LOX IMVI
Malme-3M = test system: Malme-3M
COLO 205 = test system: COLO 205

Measured: GI50

CC1(C)C2CCC1(C)[C@H](n1c(=O)n([C@@H]3CC4CCC3(C)C4(C)C)c(=O)n([C@@H]3CC4CCC3(C)C4(C)C)c1=O)C2
inactive: Hs-578T 37.9 µM | UACC-257 55.8 µM | SW-620 98.2 µM | TK-10 42.9 µM | SK-MEL-2 22.3 µM | DU-145 55.7 µM | M14 > 100 µM | SK-MEL-28 92 µM | T47D 42.6 µM | MCF7 71.9 µM | NCI-H23 63 µM | UO-31 38.7 µM | MOLT-4 63.4 µM | HCC 2998 22 µM | OVCAR-8 49.9 µM | U-251 25.3 µM | SF-295 29.6 µM | LOX IMVI > 100 µM

c1cc(-c2ccc(-c3ccc(-c4ccc(-c5ccncc5)o4)cc3)o2)ccn1
inactive: Hs-578T 64.1 µM | UACC-257 15.8 µM | SW-620 28.2 µM | TK-10 17 µM | DU-145 15 µM | M14 17.7 µM | SK-MEL-28 21.2 µM | T47D 11.4 µM | MCF7 18.8 µM | NCI-H23 16.9 µM | UO-31 21.5 µM | MOLT-4 6.34 µM | HCC 2998 18.2 µM | Malme-3M 19.8 µM | COLO 205 16.1 µM | OVCAR-8 16.8 µM | U-251 17.5 µM | SF-295 15 µM | LOX IMVI 21.4 µM

NC1(C(=O)O)CCCC1C(=O)O (stereo not given)
inactive: Hs-578T > 100 µM | UACC-257 > 100 µM | SW-620 > 100 µM | TK-10 > 100 µM | SK-MEL-2 > 100 µM | DU-145 > 100 µM | M14 > 100 µM | SK-MEL-28 > 100 µM | T47D > 100 µM | MCF7 > 100 µM | NCI-H23 > 100 µM | UO-31 > 100 µM | MOLT-4 > 100 µM | Malme-3M > 100 µM | COLO 205 > 100 µM | OVCAR-8 > 100 µM | U-251 > 100 µM | SF-295 > 100 µM | LOX IMVI > 100 µM

COc1cc([C@H]2c3cc(O)c(OC)cc3C[C@]3(O)[C@@H]2CO[C@@H]3O)ccc1O
inactive: Hs-578T > 100 µM | UACC-257 > 100 µM | SW-620 > 100 µM | TK-10 > 100 µM | SK-MEL-2 > 100 µM | DU-145 > 100 µM | M14 > 100 µM | SK-MEL-28 > 100 µM | T47D > 100 µM | MCF7 > 100 µM | NCI-H23 > 100 µM | UO-31 > 100 µM | MOLT-4 > 100 µM | HCC 2998 > 100 µM | COLO 205 > 100 µM | OVCAR-8 > 100 µM | U-251 > 100 µM | SF-295 > 100 µM | LOX IMVI > 100 µM

CCn1c(=O)c2c3ccc(OC(C)=O)cc3[nH]c2c2ccc(OC(C)=O)cc21
inactive: Hs-578T 34.5 µM | UACC-257 42.1 µM | SW-620 30.7 µM | TK-10 51.5 µM | DU-145 18.5 µM | M14 45.3 µM | SK-MEL-28 49.2 µM | T47D 18.5 µM | MCF7 23.1 µM | NCI-H23 40.3 µM | UO-31 44.1 µM | MOLT-4 17.6 µM | HCC 2998 23.7 µM | Malme-3M 32.2 µM | COLO 205 30.9 µM | OVCAR-8 31.3 µM | U-251 37.2 µM | SF-295 36.1 µM

CN1CC2CN(Cc3ccccc3)CCN2c2cccnc21 (stereo not given)
inactive: Hs-578T 40.3 µM | UACC-257 40.8 µM | SW-620 35.2 µM | TK-10 > 100 µM | SK-MEL-2 89.7 µM | M14 60.7 µM | T47D 53.7 µM | MCF7 39.9 µM | NCI-H23 39 µM | UO-31 69.3 µM | MOLT-4 35.6 µM | Malme-3M 47 µM | COLO 205 36.6 µM | OVCAR-8 48.2 µM | U-251 42.8 µM | SF-295 89.5 µM | LOX IMVI 20.9 µM

CC1=NN(c2cccc(Cl)c2)C2(C1=Cc1ccc(N(C)C)cc1)C(Cl)C(=O)N2c1nc2ccccc2s1 (stereo not given)
inactive: Hs-578T 23.5 µM | UACC-257 > 100 µM | SW-620 19.6 µM | TK-10 76.4 µM | SK-MEL-2 60.3 µM | DU-145 97.5 µM | M14 18.7 µM | SK-MEL-28 > 100 µM | T47D 50.8 µM | MCF7 70.5 µM | NCI-H23 45.5 µM | UO-31 > 100 µM | MOLT-4 74 µM | HCC 2998 17.8 µM | OVCAR-8 73.3 µM | U-251 53.7 µM | SF-295 67.1 µM | LOX IMVI > 100 µM

CC(C)(C)OC(=O)NC(Cc1ccc([N+](=O)[O-])cc1)C(=O)NCC(=O)OCc1ccccc1 (stereo not given) (Boc-[ξPhe(4-NO2)]-Gly-OBn)
inactive: Hs-578T 22.3 µM | SW-620 29.6 µM | TK-10 > 100 µM | DU-145 30.1 µM | M14 19.5 µM | SK-MEL-28 24 µM | T47D 44.1 µM | MCF7 28.2 µM | NCI-H23 20.2 µM | UO-31 23.9 µM | MOLT-4 15 µM | HCC 2998 19.6 µM | Malme-3M 23.8 µM | COLO 205 17.1 µM | OVCAR-8 22.2 µM | U-251 20.7 µM | SF-295 20.5 µM | LOX IMVI 14.1 µM

Nc1nc(CCl)nc(N2CCOCC2)n1
inactive: Hs-578T 38.1 µM | UACC-257 63.2 µM | SW-620 24.4 µM | TK-10 62.7 µM | SK-MEL-2 > 100 µM | DU-145 38.4 µM | M14 27.1 µM | SK-MEL-28 20.4 µM | T47D 55.3 µM | MCF7 28.6 µM | NCI-H23 17.8 µM | UO-31 17.3 µM | MOLT-4 26.9 µM | HCC 2998 17.7 µM | COLO 205 17.9 µM | OVCAR-8 34.8 µM | U-251 22.4 µM | SF-295 29.8 µM

CCOC(=O)/C=C(/OCC)[C@@H]1C(C(=O)c2ccc(Cl)cc2)[C@H]1/C(=C\C(=O)OCC)OCC (stereo not given in full)
inactive: Hs-578T > 100 µM | UACC-257 > 100 µM | SW-620 > 100 µM | TK-10 > 40.5 µM | SK-MEL-2 > 100 µM | DU-145 > 100 µM | M14 > 100 µM | SK-MEL-28 > 100 µM | T47D > 72.9 µM | MCF7 > 100 µM | NCI-H23 > 76.9 µM | UO-31 8.79 µM | MOLT-4 > 20.5 µM | Malme-3M > 100 µM | COLO 205 95.3 µM | OVCAR-8 > 100 µM | U-251 > 100 µM | SF-295 > 33.8 µM | LOX IMVI > 100 µM

CC1C(c2ccc(F)cc2)c2cc3c(cc2OC1N1CCCC1)OCO3 (stereo not given)
inactive: Hs-578T 18 µM | UACC-257 55.1 µM | SW-620 47 µM | TK-10 37.2 µM | SK-MEL-2 89.3 µM | DU-145 61.9 µM | M14 54.2 µM | SK-MEL-28 90.4 µM | T47D 35.7 µM | MCF7 45.4 µM | NCI-H23 64.9 µM | UO-31 23.2 µM | HCC 2998 38.6 µM | COLO 205 49.5 µM | OVCAR-8 55.1 µM | SF-295 27.6 µM | LOX IMVI 83.8 µM

C=C(Cl)C(Cl)(CBr)CCCC(C)C (stereo not given)
inactive: Hs-578T 7.19 µM | UACC-257 14.6 µM | SW-620 40.1 µM | TK-10 16.4 µM | DU-145 11.5 µM | M14 > 100 µM | SK-MEL-28 19.4 µM | T47D > 21.2 µM | MCF7 12.4 µM | NCI-H23 > 100 µM | UO-31 16.3 µM | MOLT-4 > 100 µM | HCC 2998 19.6 µM | Malme-3M > 100 µM | COLO 205 19.4 µM | OVCAR-8 20.7 µM | U-251 8.73 µM | SF-295 15.8 µM | LOX IMVI > 100 µM

CCCN1C(=O)/C(=C\c2ccc(OC)c(OC)c2)S/C1=N\c1ccccc1
inactive: Hs-578T 44.4 µM | UACC-257 > 100 µM | SW-620 > 100 µM | TK-10 31.1 µM | SK-MEL-2 52.8 µM | M14 > 100 µM | SK-MEL-28 > 100 µM | T47D > 100 µM | MCF7 > 100 µM | NCI-H23 > 100 µM | UO-31 > 100 µM | MOLT-4 > 100 µM | HCC 2998 > 100 µM | Malme-3M > 100 µM | COLO 205 > 100 µM | OVCAR-8 > 100 µM | U-251 27.8 µM | SF-295 24.2 µM | LOX IMVI > 100 µM

[N-]=[N+]=Nc1c(-c2ccccc2)c(Cl)nc2ccccc12
inactive: Hs-578T 44.2 µM | UACC-257 25.5 µM | SW-620 35.4 µM | TK-10 74.5 µM | SK-MEL-2 58.3 µM | M14 46 µM | SK-MEL-28 58.7 µM | T47D 41 µM | NCI-H23 33.5 µM | UO-31 15.5 µM | MOLT-4 51.4 µM | HCC 2998 44.2 µM | Malme-3M 34.8 µM | COLO 205 20 µM | OVCAR-8 58.2 µM | U-251 48 µM | SF-295 22.8 µM | LOX IMVI 20.6 µM

C[N+]1(C)CCOC(O)(c2ccccc2)C1 (stereo not given)
inactive: Hs-578T > 100 µM | UACC-257 > 100 µM | SW-620 > 100 µM | TK-10 > 100 µM | SK-MEL-2 > 100 µM | DU-145 > 100 µM | M14 > 100 µM | SK-MEL-28 > 100 µM | T47D > 100 µM | MCF7 > 100 µM | NCI-H23 > 100 µM | UO-31 > 100 µM | MOLT-4 > 100 µM | Malme-3M > 100 µM | COLO 205 > 100 µM | OVCAR-8 > 100 µM | U-251 > 100 µM | SF-295 > 100 µM | LOX IMVI > 100 µM
